Data from patent US20160106722A1, “HUMAN THERAPEUTIC AGENTS” (Life Plus, LLC, priority 2014, published 2016).

Experiments:
Test in all cases: Cancer spheroid cell death test (PrestoBlue)
Type in all cases: cell-based
[1] = tested on: human lung cancer cells (H358); details: compound alone
Method: (§1) Custom-made micromolds with 100 μm diameter wells were loaded with the cells (U.S. Pat. No. 8,735,154, incorporated by reference herein). The media were changed every day by partial replacement. Cell aggregates were allowed to form in the micromolds for 72 hours and then were transferred to a 100 mm non-treated tissue culture dishes for 3 additional days. The spheroids were passed through 70 μm and 100 μm cell strainers (#3431751 and #43152, Corning, Tewksbury, Mass.) and maintained in HEPES Balanced Salt Solution comprised of: 20 mM HEPES, 114 mM NaCl, 4.7 mM KCl, 1.2 mM KH2PO4, 1.16 mM MgSO4, 2.5 mM CaCl2, 25.5 mM NaHCO3 and 0.2% bovine serum albumin (fatty acid free), pH 7.2.
The lymphomas treatment methods used were identical to those described in Example 2 relative to the pediatric leukemia cells, whereas the lung cancer treatment method was the same as described in Example 1.

[2] = tested on: human ovarian cancer cells (A1847); details: for anticancer effects (cell number versus increasing concentrations): compound alone
Method: as §1
(§2) The cells were treated and tested as set forth in Example 1.

[3] = tested on: human prostate cancer cells (22rv1); details: compound alone
Method: as §1, §2

| SMILES | anticancer effects (cell number versus increasing concentrations) [1] | anticancer effects (cell number versus increasing concentrations) [2] | anticancer effects (cell number versus increasing concentrations) [3] | cell death, doxorubicin alone ([2]; low doses of doxorubicin alone (up to 0.158 μM)) |
| --- | --- | --- | --- | --- |
| COc1cccc(C=O)c1O [O-vanillin] | demonstrated anticancer effects | demonstrated anticancer effects | demonstrated anticancer effects |  |
| COc1cccc2c1C(=O)c1c(O)c3c(c(O)c1C2=O)C[C@@](O)(C(=O)CO)C[C@@H]3O[C@H]1C[C@H](N)[C@H](O)[C@H](C)O1 [doxorubicin, reference compound] |  |  |  | ineffective |
| COc1ccc2c3c([nH]c2c1)C(C)=NCC3 [harmaline] | demonstrated anticancer effects | demonstrated anticancer effects | demonstrated anticancer effects |  |
| CC1=NCCc2c1[nH]c1cc(O)ccc21.Cl [harmalol hydrochloride] | demonstrated anticancer effects | demonstrated anticancer effects | demonstrated anticancer effects |  |
| Cc1nccc2c1[nH]c1cc(O)ccc12.Cl [harmole hydrochloride] | demonstrated anticancer effects | demonstrated anticancer effects | demonstrated anticancer effects |  |
| COc1ccc(C(=O)O)cc1O [isovanillic acid] | demonstrated anticancer effects | demonstrated anticancer effects | demonstrated anticancer effects |  |
| COc1ccc(CO)cc1O [isovanillyl alcohol] | demonstrated anticancer effects | demonstrated anticancer effects | demonstrated anticancer effects |  |
| COc1ccc2c3c([nH]c2c1)[C@@H](C)NCC3 [tetrahydro-harmine] | demonstrated anticancer effects | demonstrated anticancer effects | demonstrated anticancer effects |  |
| COc1cc(C=O)ccc1O [vanillin] | demonstrated anticancer effects | demonstrated anticancer effects | demonstrated anticancer effects |  |
